One data set relates to MiaPaca2. The data set is described as follows: Cell proliferation / cell death assay, MiaPaca2. It is filed as cell-based, human. The following applies: MiaPaca2, 10-100 μM. Here is the method: (§1) Human pancreatic cancer cell lines (Panc-1, MiaPaca2, BXPC3, Aspc 1), human hepatoma cell line (HuH7), human gastric cancer cell lines (AGS, MKN45), human colon cancer cell line (CoCM-1), human mammary cancer cell line (MCF-7), human neuroblastoma (SH-SY5Y), human prostate cancer cells (PC3), and murine Ehrlich ascites cancer cells and mouse 3T3-L1 fibroblasts were obtained from American Type Culture Collection (Rockville, Md., USA). The cancer cells were cultured in RPMI 1640 containing 10% fetal calf serum. Cultures were maintained at 37° C. in a humidified atmosphere of 5% CO2.
(§2) Cell proliferation assays were performed with the CellTiter 96 AQueous One Solution Cell Proliferation Assay kit according to the manufacturer's instructions (Promega, Madison, Wis., USA). Briefly, 5×10^3 cells/well in medium were placed onto 96-well plates. IGs were added to cellular cultures at final concentrations of 0, 1, 10, and 100 μM. Cultures were incubated for 3 days or 7 days and then added to 20 μL/well of CellTiter 96 AQueous One Solution Reagent, which contains a tetrazolium compound, 3-(4,5-dimethylthiazol-2-yl)-5-(3-carboxymethoxyphenyl)-2-(4-sulfophenyl)-2H-tetrazolium, an inner salt; MTS was added to the culture medium. After incubating the plate for 1 h in a CO2 incubator, absorbance at 490 nm was recorded with a 96-well plate reader.

The subject of data set [1] is human colon cancer cells (CoCM-1). In words: Cell proliferation / cell death assay, CoCM-1. It is filed as cell-based. To be noted: CoCM-1, 10-100 μM. How it is done:
as §1, §2

For data set [2], the system named is human umbilical vein endothelial cells (HUVEC). The data set is described as follows: Cell death of human umbilical vein endothelial cells. It is filed as cell-based. To be noted: in 1 hour.
A further data set relates to 3T3-L1 adipocytes. In words: Glycogen synthesis in 3T3-L1 adipocytes. To be noted: 10-1000 μM. It is filed as cell-based, mouse. Here is the method: 3T3-L1 fibroblasts were maintained in Dulbecco's modified Eagle's medium (DMEM) with 25 mM glucose plus 10% fetal bovine serum (FBS). Following 2 days at confluence, differentiation was initiated by the addition of DMEM containing 10% FBS, 167 nM insulin, […] dexamethasone, and 0.5 mM isobutylmethylxanthine. Three days later, the medium was replaced with DMEM plus 10% FBS and 167 nM insulin. After 2 more days, the medium was switched to DMEM plus 10% fetal bovine serum. Adipocytes were used 6-14 days after completion of the differentiation protocol, when >90% of the cells expressed the adipocyte phenotype. Prior to experiments, cells were washed two times with DMEM medium containing 5 mM glucose, 0.2% bovine serum albumin, 25 mM Hepes (pH 7.4), 100 units/ml penicillin, 100 units/ml streptomycin and 0.29 mg/ml glutamine, and were incubated in the same medium for 2 h. Glycogen and lipid synthesis were measured in 24-well dishes. […] The lipids were then extracted overnight with 5 ml of Betafluor (National Diagnostics), and glucose incorporation into lipid was measured by scintillation counting. 400 μl of the cell suspension was added to 600 μl of 50% KOH, and glycogen was precipitated and radioactivity was counted by a liquid scintillation counter

For data set [3], the system named is streptozotocin (STZ)-diabetic mice. In words: Intravenous administration of IG1, STZ-diabetic mice. It is filed as in vivo. How it is done:
(§3) Male C57BL/6 mice were housed individually and given free access to a standard diet (65% carbohydrate, 4% fat, and 24% protein) or a high-fat diet (Quick Fat; 60.2% carbohydrate, 15.3% fat, and 24.5% protein; Clea Japan, Tokyo, Japan), starting at 5 weeks of age, for 5 weeks. Db/db mice also were housed individually and given free access to a standard diet. C57BL/6 mice at 5 weeks of age, were received a single dose of 75 μg/g body weight streptozotoxin (STZ). 7 days after injections, the mice, whose fasting plasma glucose concentrations were over 400 mg/dl, were used as STZ-diabetic mice. […]
(§4) Frozen livers were homogenized, and triglycerides were extracted with CHCl3:CH3OH (2:1, vol:vol), dried and resuspended in 2-propanol (17). Triglyceride contents were measured using Lipidos liquid (TOYOBO, Osaka, Japan). […] Glycogen content was determined by the phenol-sulfuric acid spectrophotometric method at 490 nm (18) and expressed as micrograms of glycogen per milligram of liver.
(§5) Blood glucose was assayed with Glucose Ace (Sanwa Kagaku Kenkyusho, Nagoya, Japan). Serum insulin and leptin were determined with ELISA kits (Morinaga Institute of Biological Science, Yokohama, Japan). Serum adiponectin and tumor necrosis factor-α (TNF-α) concentrations were measured with an ELISA kit (Ohtsuka Pharmaceutical, Tokyo, Japan) and a TNF-α assay kit (Amersham Biosciences, Uppsala, Sweden), respectively. […]

Data set [4] has as its system C57B/6 mice on normal diets. The data set is described as follows: Intravenous administration of IG1, mice on normal diets. It is filed as in vivo. How it is done: as §3, §4, §5
Data set [5] deals with C57B/6 mice on normal diets. In words: Intraperitoneal IG1 for 7 days, mice on normal diets. It is filed as in vivo. To be noted: intraperitoneal for every 7 days, data not shown. Here is the method: as §3, §4, §5
Another data set relates to ob/ob obese mice. The data set is described as follows: IG-1 treatment for 28 days, ob/ob obese mice. It is filed as in vivo. The following applies: IG1 1 mg, Mean ± SD (n = 6). How it is done:
(§6) Blood glucose was assayed with Glucose Ace (Sanwa Kagaku Kenkyusho, Nagoya, Japan). Serum insulin and leptin were determined with ELISA kits (Morinaga Institute of Biological Science, Yokohama, Japan). Serum adiponectin and tumor necrosis factor-α (TNF-α) concentrations were measured with an ELISA kit (Ohtsuka Pharmaceutical, Tokyo, Japan) and a TNF-α assay kit (Amersham Biosciences, Uppsala, Sweden), respectively. Serum total cholesterol, triglyceride, and FFA concentrations were determined with a Cholescolor liquid, Lipidos liquid (TOYOBO, Osaka, Japan), and NEFA C (Wako Pure Chemical, Osaka, Japan) kits, respectively.

Data set [6] has as its system C57B/6 mice on high-fat diets. In words: IG1 treatment for 28 days, mice on high-fat diets. To be noted: data not shown. It is filed as in vivo. How it is done: Male C57BL/6 mice were housed individually and given free access to a standard diet (65% carbohydrate, 4% fat, and 24% protein) or a high-fat diet (Quick Fat; 60.2% carbohydrate, 15.3% fat, and 24.5% protein; Clea Japan, Tokyo, Japan), starting at 5 weeks of age, for 5 weeks. Db/db mice also were housed individually and given free access to a standard diet. C57BL/6 mice at 5 weeks of age, were received a single dose of 75 μg/g body weight streptozotoxin (STZ). 7 days after injections, the mice, whose fasting plasma glucose concentrations were over 400 mg/dl, were used as STZ-diabetic mice. Animal study protocols were in accordance with the institutional guidelines for animal experiments at Tohoku University.
as §6

On to `CCCCCCCCCCCCCCCC(=O)O[C@@H]1C(O)C(O)[C@H](O)C(O[C@H]2OC(CO)[C@@H](O)[C@H](O)C2N)C1O` (stereo in doubt) [IG1, 2-Amino-2-deoxy-α-D-glucopyranosyl-(1→6)-2-palmitoyl-D-myo-inositol], for which, in the data set with MiaPaca2, the “rapid cancer cell death” value is “rapid cancer cell death was demonstrated”. The “rapid cancer cell death” value in data set [1] is on record as “rapid cancer cell death was demonstrated”. The “cell death of HUVEC” value in data set [2] is “induces rapid cell death”. Also, the glycogen synthesis entry in the data set with 3T3-L1 adipocytes is listed as “stimulates”. Also, the “hepatic and muscular glycogen synthesis” value in [3] (STZ-diabetic mice, data not shown) is “increases hepatic and muscular glycogen synthesis”. Further, in data set [3] (intravenous, 0.3 mg per mice, 120-300 min after administration), the plasma glucose concentrations result is recorded as “significantly reduced plasma glucose concentrations”. The plasma glucose concentrations result in data set [4] (intravenous, normal mice) is “reduced plasma glucose concentrations”. In data set [4] (mice on normal diets, data not shown), the “hepatic and muscular glycogen synthesis” value is “increases hepatic and muscular glycogen synthesis”. In addition, in data set [5], the glucose tolerance result is given as “improves glucose tolerance”; the “hepatic and muscular glycogen synthesis” value was “increases hepatic and muscular glycogen synthesis”. In the data set on ob/ob obese mice, the Adiponectin is 47.6 ± 4.6 µg/mL, the Body weight turned out to be 40.1 ± 3.2 g, the Fasting plasma glucose is 66.1 ± 8.3 mg/dL and the Fasting plasma insulin was determined as 16.3 ± 4.3 ng/mL. Also, in the data set on ob/ob obese mice, the Food intake was determined as 4.53 ± 0.74 g/day, the NEFA is 0.88 ± 0.34 mEq/l, the TNF-1α came out at 34.7 ± 6.7 pg/mL and the Total cholesterol came to 172.4 ± 13.6 mg/dL. In the data set with ob/ob obese mice, this molecule gave a Triglyceride of 31.2 ± 5.3 mg/dL. Also, the “daily food intakes, body weight, and fasting plasma concentrations of insulin, triglyceride, free fatty acids and leptin” value in [6] is reported as “significantly reduces”.
